In brackets after ≈: the same amount, converted by molar mass. One block for each molecule: values may come before it. Activity calls are given as the source filed them. No cut-off for these calls is given here. Non-standard residues stand in square brackets, D forms with d. Residues, ends and D or L forms follow the SMILES beside them. *: point of attachment. Lauroyl = CCCCCCCCCCCC(=O)*; 12Ado = NCCCCCCCCCCCC(=O)O
Assays:
Helicobacter pylori [1] = assay: Antimicrobial activity against Helicobacter pylori G27; assay type: functional
Helicobacter pylori [2] = assay: Antimicrobial activity against Helicobacter pylori J99 at 2 times MBC by time-kill analysis; assay type: functional
Helicobacter pylori [3] = assay: Antimicrobial activity against Helicobacter pylori G27 at 2 times MBC by time-kill analysis; assay type: functional
Helicobacter pylori [4] = assay: Bactericidal activity against Helicobacter pylori G27 preincubated at 95 degC for 1 hr; assay type: functional
Helicobacter pylori [5] = assay: Bactericidal activity against Helicobacter pylori G27 preincubated at 42 degC for 1 hr; assay type: functional
Helicobacter pylori [6] = assay: Bactericidal activity against Helicobacter pylori G27 at pH 4.5; assay type: functional
Helicobacter pylori [7] = assay: Antimicrobial activity against Helicobacter pylori G27 at MBC by time-kill analysis; assay type: functional
Helicobacter pylori [8] = assay: Bactericidal activity against Helicobacter pylori 7.13 at 40 uM after 10 hrs; assay type: functional, organism-based
Helicobacter pylori [9] = assay: Antimicrobial activity against Helicobacter pylori J99 at MBC by time-kill analysis; assay type: functional
Helicobacter pylori [10] = assay: Antimicrobial activity against Helicobacter pylori 7.13; assay type: functional
Helicobacter pylori [11] = assay: Bactericidal activity against Helicobacter pylori G27 preincubated at 4 degC for 1 hr; assay type: functional
Helicobacter pylori [12] = assay: Bactericidal activity against Helicobacter pylori G27 preincubated at 55 degC for 1 hr; assay type: functional
[13] = Antimicrobial activity against Helicobacter pylori 26695; assay type: functional
Helicobacter pylori [14] = assay: Bactericidal activity against Helicobacter pylori G27 preincubated at 37 degC for 1 hr; assay type: functional
Helicobacter pylori [15] = assay: Bactericidal activity against Helicobacter pylori G27 preincubated at 60 degC for 1 hr; assay type: functional
Helicobacter pylori [16] = assay: Bactericidal activity against Helicobacter pylori G27 preincubated at 50 degC for 1 hr; assay type: functional
Helicobacter pylori [17] = assay: Bactericidal activity against Helicobacter pylori G27 at pH 6.9; assay type: functional
Helicobacter pylori [18] = assay: Antimicrobial activity against Helicobacter pylori HPAG1; assay type: functional
Helicobacter pylori [19] = assay: Antimicrobial activity against Helicobacter pylori J99; assay type: functional
Helicobacter pylori [20] = assay: Bactericidal activity against Helicobacter pylori J99 at 40 uM after 10 hrs; assay type: functional
Helicobacter pylori [21] = assay: Antimicrobial activity against Helicobacter pylori 7.13 at MBC by time-kill analysis; assay type: functional
Helicobacter pylori [22] = assay: Antimicrobial activity against Helicobacter pylori SS1; assay type: functional
Helicobacter pylori [23] = assay: Bactericidal activity against Helicobacter pylori G27 at 40 uM after 10 hrs; assay type: functional
[24] = Toxicity in horse erythrocytes assessed as hemolytic activity at 0.625 to 40 uM; assay type: cell-based, Equus caballus; details: erythrocyte
[25] = Toxicity in horse erythrocytes assessed as hemolytic activity at 80 uM; assay type: cell-based, Equus caballus; details: erythrocyte
Helicobacter pylori [26] = assay: Antimicrobial activity against Helicobacter pylori 7.13 at 2 times MBC by time-kill analysis; assay type: functional

MIC (Helicobacter pylori [1]): 25 µM (≈ 41.9 µg/mL)
SMILES: CCCCCCCCCCCC(=O)N[C@@H](CCCCN)C(=O)NCCCCCCCC(=O)N[C@@H](CCCCN)C(=O)NCCCCCCCC(=O)N[C@@H](CCCCN)C(=O)NCCCCCCCC(=O)N[C@@H](CCCCN)C(=O)NCCCCCCCC(=O)N[C@@H](CCCCN)C(=O)NCCCCCCCC(=O)N[C@@H](CCCCN)C(N)=O
MBC (Helicobacter pylori [1]): > 100 µM

MIC (Helicobacter pylori [1]): 25 µM (≈ 55.3 µg/mL)
SMILES: CCCCCCCCCCCC(=O)N[C@@H](CCCCN)C(=O)NCCCCCCCC(=O)N[C@@H](CCCCN)C(=O)NCCCCCCCC(=O)N[C@@H](CCCCN)C(=O)NCCCCCCCC(=O)N[C@@H](CCCCN)C(=O)NCCCCCCCC(=O)N[C@@H](CCCCN)C(=O)NCCCCCCCC(=O)N[C@@H](CCCCN)C(=O)NCCCCCCCC(=O)N[C@@H](CCCCN)C(=O)NCCCCCCCC(=O)N[C@@H](CCCCN)C(N)=O
MBC (Helicobacter pylori [1]): > 100 µM

MIC (Helicobacter pylori [10]): < 9 µM
MIC [13]: 25 µM (≈ 30.9 µg/mL)
MIC (Helicobacter pylori [1]): 6.5 µM (≈ 8.03 µg/mL)
MIC (Helicobacter pylori [18]): 10.5 µM (≈ 13 µg/mL)
MIC (Helicobacter pylori [19]): 10.5 µM (≈ 13 µg/mL)
MIC (Helicobacter pylori [22]): 25.5 µM (≈ 31.5 µg/mL)
SMILES: CCCCCCCCCCCC(=O)N[C@@H](CCCCN)C(=O)N[C@@H](CCCCN)C(=O)NCCCCCCCCCCCC(=O)N[C@@H](CCCCN)C(=O)N[C@@H](CCCCN)C(=O)NCCCCCCCCCCCC(=O)N[C@@H](CCCCN)C(N)=O (Lauroyl-KK[12Ado]KK[12Ado]K-NH2)
Time (Helicobacter pylori [2]): 1.8 h
Time (Helicobacter pylori [3]): 2.7 h
Activity (Helicobacter pylori [4]): Active
Activity (Helicobacter pylori [5]): Active
Activity (Helicobacter pylori [6]): inactive
Time (Helicobacter pylori [7]): 6.1 h
Activity (Helicobacter pylori [8]): Active
Time (Helicobacter pylori [9]): 3.8 h
MBC (Helicobacter pylori [10]): 14.5 µM (≈ 17.9 µg/mL)
Activity (Helicobacter pylori [11]): Active
Activity (Helicobacter pylori [12]): Active
MBC [13]: 70 µM (≈ 86.4 µg/mL)
Activity (Helicobacter pylori [14]): Active
Activity (Helicobacter pylori [15]): Active
Activity (Helicobacter pylori [16]): Active
MBC (Helicobacter pylori [1]): 15 µM (≈ 18.5 µg/mL)
Activity (Helicobacter pylori [17]): Active
MBC (Helicobacter pylori [18]): 40 µM (≈ 49.4 µg/mL)
MBC (Helicobacter pylori [19]): 20 µM (≈ 24.7 µg/mL)
Activity (Helicobacter pylori [20]): Active
Time (Helicobacter pylori [21]): 6.1 h
MBC (Helicobacter pylori [22]): 45 µM (≈ 55.6 µg/mL)
Activity (Helicobacter pylori [23]): Active
Activity [24]: Non-toxic
Activity [25]: Toxic
Time (Helicobacter pylori [26]): 3.5 h

Reference: ChEMBL document CHEMBL1649222, “In vitro antibacterial activity of acyl-lysyl oligomers against Helicobacter pylori” (Antimicrob Agents Chemother, 2009)
